Drawing on patent US20250179073A1, “TRICYCLIC HETEROCYCLE COMPOUNDS AS IAP ANTAGONISTS” (Ascentage Pharma (Suzhou) Co., Ltd., priority 2022, published 2025), this text covers IC50 for 18 compounds.

One test concerns MDA-MB-231 cells. The test is described as follows: Cell proliferation assay (CellTiter-Glo), MDA-MB-231. It is filed as cell-based. To be noted: 72 h treatment, Celltiter-Glo luminescence. In outline:
(§1)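 MDA-MB-231 (RPMI-1640/10% FBS) and EVSA-T (MEM/10% FBS) cells, 10000 cells/well, exposed 72 h to compound at […]. Viability read by CellTiter-Glo luminescence after 15 min at room temperature. IC50 from control-normalised curve fitting.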
(ATP-based viability assays read luminescence as a measure of living cells.)

The next test has as its system EVSA-T cells. Nature of the test: Cell proliferation assay (CellTiter-Glo), EVSA-T. The note with it: 72 h treatment, Celltiter-Glo luminescence. It is filed as cell-based. The essentials:
as §1

On to `C[C@@H]1CN(CC(=O)N2CC(C)(C)c3c2cc(Cc2ccc(F)cc2)c2nn(C4CC(O)C4)c(=O)n32)[C@@H](CN2CCOC[C@H]2C)CN1` (stereo partly drawn) [Compound 271, 4-(4-fluorobenzyl)-2-(3-hydroxycyclobutyl)-8,8-dimethyl-6-(2-((2R,5R)-5-methyl-2-(((R)-3-methylmorpholino)methyl)piperazin-1-yl)acetyl)-2,6,7,8-tetrahydro-1H-pyrrolo[2,3-e][1,2,4]triazolo[4,3-a]pyridin-1-one], for which the IC50 (commonly the concentration that inhibits the measured activity by half) in the test with MDA-MB-231 cells (Homo sapiens, MDA-MB-231, 72 h) came to 22 nM; with EVSA-T cells (Homo sapiens, EVSA-T, 72 h), 2.2 nM.
The corresponding values for `C[C@@H]1CN(CC(=O)N2CC(C)(C)c3c2cc(Cc2ccc(F)cc2)c2nn(C4CC(C)(O)C4)c(=O)n32)[C@@H](CN2CCOC[C@H]2C)CN1` (stereo partly drawn) [Compound 272, 4-(4-fluorobenzyl)-2-(3-hydroxy-3-methylcyclobutyl)-8,8-dimethyl-6-(2-((2R,5R)-5-methyl-2-(((R)-3-methylmorpholino)methyl)piperazin-1-yl)acetyl)-2,6,7,8-tetrahydro-1H-pyrrolo[2,3-e][1,2,4]triazolo[4,3-a]pyridin-1-one] are 21 nM and 2 nM.
The matching figures for `C[C@@H]1CN(CC(=O)N2CC(C)(C)c3c2cc(Cc2ccc(F)cc2)c2nn(C4CCC4O)c(=O)n32)[C@@H](CN2CCOC[C@H]2C)CN1` (stereo partly drawn) [Compound 273A, 4-(4-fluorobenzyl)-2-(2-hydroxycyclobutyl)-8,8-dimethyl-6-(2-((2R,5R)-5-methyl-2-(((R)-3-methylmorpholino)methyl)piperazin-1-yl)acetyl)-2,6,7,8-tetrahydro-1H-pyrrolo[2,3-e][1,2,4]triazolo[4,3-a]pyridin-1-one]: 23 nM and 1.24 nM.
`C[C@@H]1CN(CC(=O)N2CC(C)(C)c3c2cc(Cc2ccc(F)cc2)c2nn(C4CCC4O)c(=O)n32)[C@@H](CN2CCOC[C@H]2C)CN1` (stereo partly drawn) [Compound 273B, 4-(4-fluorobenzyl)-2-(2-hydroxycyclobutyl)-8,8-dimethyl-6-(2-((2R,5R)-5-methyl-2-(((R)-3-methylmorpholino)methyl)piperazin-1-yl)acetyl)-2,6,7,8-tetrahydro-1H-pyrrolo[2,3-e][1,2,4]triazolo[4,3-a]pyridin-1-one]: the values for the half-inhibitory concentration (IC50) in the test with MDA-MB-231 cells and in the test with EVSA-T cells were 14 nM and 1.7 nM, respectively.
For `C[C@@H]1CN(CC(=O)N2CC(C)(C)c3c2cc(Cc2ccc(F)cc2F)c2nn(C(C)(C)CO)c(=O)n32)[C@@H](CN2CCOC[C@H]2C)CN1` [Compound 275, 4-(2,4-difluorobenzyl)-2-(1-hydroxy-2-methylpropan-2-yl)-8,8-dimethyl-6-(2-((2R,5R)-5-methyl-2-(((R)-3-methylmorpholino)methyl)piperazin-1-yl)acetyl)-2,6,7,8-tetrahydro-1H-pyrrolo[2,3-e][1,2,4]triazolo[4,3-a]pyridin-1-one], the concentration for half-maximal inhibition (IC50) was determined as 9 nM in the test on MDA-MB-231 cells (Homo sapiens, MDA-MB-231, 72 h) and 3.1 nM with EVSA-T cells (Homo sapiens, EVSA-T, 72 h).
Take `C[C@@H]1CN(CC(=O)N2CC(C)(C)c3c2cc(Cc2ccc(F)cc2)c2nn(CC(C)(C)O)c(=O)n32)[C@@H](CN2CCOCC23CC3)CN1` [Compound 278, 6-(2-((2R,5R)-2-((7-oxa-4-azaspiro[2.5]octan-4-yl)methyl)-5-methylpiperazin-1-yl)acetyl)-4-(4-fluorobenzyl)-2-(2-hydroxy-2-methylpropyl)-8,8-dimethyl-2,6,7,8-tetrahydro-1H-pyrrolo[2,3-e][1,2,4]triazolo[4,3-a]pyridin-1-one]: the IC50 in the test with MDA-MB-231 cells (Homo sapiens, MDA-MB-231, 72 h) amounted to 39 nM; with EVSA-T cells (Homo sapiens, EVSA-T, 72 h), 9.7 nM.
For the compound `C[C@@H]1CN(CC(=O)N2CC(C)(C)c3c2cc(Cc2ccc(F)cc2F)c2nn(C[C@H]4COCCO4)c(=O)n32)[C@@H](CN2CCOC[C@H]2C)CN1` [Compound 285, 2-(((S)-1,4-dioxan-2-yl)methyl)-4-(2,4-difluorobenzyl)-8,8-dimethyl-6-(2-((2R,5R)-5-methyl-2-(((R)-3-methylmorpholino)methyl)piperazin-1-yl)acetyl)-2,6,7,8-tetrahydro-1H-pyrrolo[2,3-e][1,2,4]triazolo[4,3-a]pyridin-1-one], the concentration for half-maximal inhibition (IC50) amounted to 26 nM in the test on MDA-MB-231 cells (Homo sapiens, MDA-MB-231, 72 h) and 4.6 nM in the test with EVSA-T cells (Homo sapiens, EVSA-T, 72 h).
The matching figures for `C[C@@H]1CN(CC(=O)N2CC(C)(C)c3c2cc(Cc2ccc(F)cc2)c2nncn32)[C@@H](CN2CCOC[C@H]2C)CN1` [Example 9, 1-(4-(4-fluorobenzyl)-8,8-dimethyl-7,8-dihydro-6H-pyrrolo[2,3-e][1,2,4]triazolo[4,3-a]pyridin-6-yl)-2-((2R,5R)-5-methyl-2-(((R)-3-methylmorpholino)methyl)piperazin-1-yl)ethan-1-one]: 530 nM and 18 nM.
The corresponding values for `Cc1nnc2c(Cc3ccc(F)cc3)cc3c(n12)C(C)(C)CN3C(=O)CN1C[C@@H](C)NC[C@@H]1CN1CCOC[C@H]1C` [Example 10, 1-(4-(4-fluorobenzyl)-1,8,8-trimethyl-7,8-dihydro-6H-pyrrolo[2,3-e][1,2,4]triazolo[4,3-a]pyridin-6-yl)-2-((2R,5R)-5-methyl-2-(((R)-3-methylmorpholino)methyl)piperazin-1-yl)ethan-1-one] are 350 nM and 27 nM.
The corresponding values for `CC(C)c1nnc2c(Cc3ccc(F)cc3)cc3c(n12)C(C)(C)CN3C(=O)CN1C[C@@H](C)NC[C@@H]1CN1CCOC[C@H]1C` [Example 11, 1-(4-(4-fluorobenzyl)-1-isopropyl-8,8-dimethyl-7,8-dihydro-6H-pyrrolo[2,3-e][1,2,4]triazolo[4,3-a]pyridin-6-yl)-2-((2R,5R)-5-methyl-2-(((R)-3-methylmorpholino)methyl)piperazin-1-yl)ethan-1-one] are 170 nM and 10 nM.
Turning to `C[C@@H]1CN(CC(=O)N2CC(C)(C)c3c2cc(Cc2ccc(F)cc2)c2nnc(C4CC4)n32)[C@@H](CN2CCOC[C@H]2C)CN1` [Example 12, 1-(1-cyclopropyl-4-(4-fluorobenzyl)-8,8-dimethyl-7,8-dihydro-6H-pyrrolo[2,3-e][1,2,4]triazolo[4,3-a]pyridin-6-yl)-2-((2R,5R)-5-methyl-2-(((R)-3-methylmorpholino)methyl)piperazin-1-yl)ethan-1-one], the half-inhibitory concentration (IC50) is 190 nM in the test with MDA-MB-231 cells (Homo sapiens, MDA-MB-231, 72 h) and 12 nM in the test on EVSA-T cells (Homo sapiens, EVSA-T, 72 h).
Take `C[C@@H]1CN(CC(=O)N2CC(C)(C)c3c2cc(Cc2ccc(F)cc2)c2nnc(C(F)(F)F)n32)[C@@H](CN2CCOC[C@H]2C)CN1` [Example 13, 1-(4-(4-fluorobenzyl)-8,8-dimethyl-1-(trifluoromethyl)-7,8-dihydro-6H-pyrrolo[2,3-e][1,2,4]triazolo[4,3-a]pyridin-6-yl)-2-((2R,5R)-5-methyl-2-(((R)-3-methylmorpholino)methyl)piperazin-1-yl)ethan-1-one]: the IC50 with MDA-MB-231 cells (Homo sapiens, MDA-MB-231, 72 h) was determined as 170 nM; in the test on EVSA-T cells (Homo sapiens, EVSA-T, 72 h) it was 9 nM.
Regarding `C[C@@H]1CN(CC(=O)N2CC(C)(C)c3c2cc(Cc2ccc(F)cc2)c2ncnn32)[C@@H](CN2CCOC[C@H]2C)CN1` [Example 14, 1-(4-(4-fluorobenzyl)-8,8-dimethyl-7,8-dihydro-6H-pyrrolo[2,3-e][1,2,4]triazolo[1,5-a]pyridin-6-yl)-2-((2R,5R)-5-methyl-2-(((R)-3-methylmorpholino)methyl)piperazin-1-yl)ethan-1-one], the 50% inhibitory concentration (IC50) came to 42 nM in the test on MDA-MB-231 cells (Homo sapiens, MDA-MB-231, 72 h) and 6 nM in the test on EVSA-T cells (Homo sapiens, EVSA-T, 72 h).
Take `C[C@@H]1CN(CC(=O)N2CC(C)(C)c3c2cc(Cc2ccc(F)cc2)c2nccn32)[C@@H](CN2CCOC[C@H]2C)CN1` [Example 17, 1-(4-(4-fluorobenzyl)-8,8-dimethyl-7,8-dihydro-6H-imidazo[1,2-a]pyrrolo[2,3-e]pyridin-6-yl)-2-((2R,5R)-5-methyl-2-(((R)-3-methylmorpholino)methyl)piperazin-1-yl)ethan-1-one]: the IC50 with MDA-MB-231 cells (Homo sapiens, MDA-MB-231, 72 h) was found to be 120 nM; with EVSA-T cells (Homo sapiens, EVSA-T, 72 h), 4 nM.
As to `CCOC(=O)c1cn2c3c(cc(Cc4ccc(F)cc4)c2n1)N(C(=O)CN1C[C@@H](C)NC[C@@H]1CN1CCOC[C@H]1C)CC3(C)C` [Example 18, ethyl 4-(4-fluorobenzyl)-8,8-dimethyl-6-(2-((2R,5R)-5-methyl-2-(((R)-3-methylmorpholino)methyl)piperazin-1-yl)acetyl)-7,8-dihydro-6H-imidazo[1,2-a]pyrrolo[2,3-e]pyridine-2-carboxylate], the half-maximal inhibitory concentration (IC50) with MDA-MB-231 cells (Homo sapiens, MDA-MB-231, 72 h) is 74 nM; in the test on EVSA-T cells (Homo sapiens, EVSA-T, 72 h), 14 nM.
The matching figures for `C[C@@H]1CN(CC(=O)N2CC(C)(C)c3c2cc(Cc2ccc(F)cc2)c2nc(CO)cn32)[C@@H](CN2CCOC[C@H]2C)CN1` [Example 19, 1-(4-(4-fluorobenzyl)-2-(hydroxymethyl)-8,8-dimethyl-7,8-dihydro-6H-imidazo[1,2-a]pyrrolo[2,3-e]pyridin-6-yl)-2-((2R,5R)-5-methyl-2-(((R)-3-methylmorpholino)methyl)piperazin-1-yl)ethan-1-one]: 180 nM and 21 nM.
The corresponding values for `C[C@@H]1CN(CC(=O)N2CC(C)(C)c3c2cc(Cc2ccc(F)cc2)c2nc(C(N)=O)cn32)[C@@H](CN2CCOC[C@H]2C)CN1` [Example 20, 4-(4-fluorobenzyl)-8,8-dimethyl-6-(2-((2R,5R)-5-methyl-2-(((R)-3-methylmorpholino)methyl)piperazin-1-yl)acetyl)-7,8-dihydro-6H-imidazo[1,2-a]pyrrolo[2,3-e]pyridine-2-carboxamide] are 110 nM and 13 nM.
Take `C[C@@H]1CN(CC(=O)N2CC(C)(C)c3c2cc(Cc2ccc(F)cc2)c2nc(C#N)cn32)[C@@H](CN2CCOC[C@H]2C)CN1` [Example 21, 4-(4-fluorobenzyl)-8,8-dimethyl-6-(2-((2R,5R)-5-methyl-2-(((R)-3-methylmorpholino)methyl)piperazin-1-yl)acetyl)-7,8-dihydro-6H-imidazo[1,2-a]pyrrolo[2,3-e]pyridine-2-carbonitrile]: the half-inhibitory concentration (IC50) was 23 nM in the test on MDA-MB-231 cells (Homo sapiens, MDA-MB-231, 72 h) and 5 nM in the test on EVSA-T cells (Homo sapiens, EVSA-T, 72 h).
